Measured values published in paper PMC13266999, “Designing Antibiotics with Inherent Resistance to Efflux as a Strategy to Revive Discovery against Multidrug-Resistant Pathogens” (Journal of Medicinal Chemistry, 2026).
In brackets after ≈: the same amount, converted by molar mass. Several values for one entry are separate records, joined by “and”; a condition that tells them apart may be missing. Identical values can stand only once. Like-named read-outs stand apart in the source and are kept apart here.

Assays:
S. pyogenes = assay: MIC (microbroth dilution); assay type: cell-based, Streptococcus pyogenes; settings: for MIC: Streptococcus pyogenes
Procedure: All bacteria were maintained on tryptic soy agar (TSA), except Streptococcus spp., which were maintained on Columbia agar plates containing 5% horse blood. All bacterial assays were carried out in tryptic soy broth (TSB), except for Streptococcus spp. which were grown in cation-adjusted Mueller Hinton broth containing 2.5% lysed horse blood. Bacteria were grown to stationary phase in liquid culture overnight, with shaking at 200 rpm, before being back diluted to the relevant starting concentration for each assay below. MICs were measured by the microbroth dilution method. […] Absorbance at OD600 was read on a CLARIOstar spectrophotometer (BMG Labtech) and the MIC was defined as the minimum concentration of compound where no visible growth was detected. The compounds were prepared as a DMSO stock and equivalent concentrations of DMSO had no effect on bacterial growth. MICs were also performed in the presence of the outer membrane permeator, polymyxin b nonapeptide (PMBN) following the same MIC method but with the following variation. The 2-fold dilution series of compound was prepared as above, then 50 μL of PMBN at a final concentration of 30 μg/mL was added to relevant wells, while 50 μL/well of blank media was added to the remaining wells. Bacteria were then added at 50 μL/well for a starting concentration as above. Thirty μg/mL of PMBN had no effect on bacterial growth. The MICs were read and defined as above. All animal procedures were performed by the contract research organization Pharmacology Discovery Services Taiwan in accordance with the Guide for the Care and Use of Laboratory Animals. The procedures were approved by the Institutional Ethics Committee of Pharmacology Discovery Services Taiwan, Ltd. (approval no. AB127662), in compliance with animal welfare legislation in Taiwan.

CYP3A = assay: CYP inhibition; settings: HLM; for inhibition at 10 µM: human, human liver microsomes, CYP3A inhibition
Procedure: (§2) Cytochrome P450 inhibition was assessed in vitro using human recombinant enzymes in microsomal preparations. […] Enzyme activity was quantified by monitoring formation of substrate-specific metabolites, and percent inhibition was calculated relative to vehicle control.

CYP2B6 = CYP2B6 (Homo sapiens, UniProt P20813); assay: CYP inhibition; settings: HLM, bupropion substrate
Procedure: as §2

COX1(h) = biological target: T1, COX1(h) (Homo sapiens, UniProt P23219); assay: SafetyScreen44; assay type: biochemical; settings: enzymatic activity, 1.0E-05 M
T1 construct: purchased Eurofins (SafetyScreen44)
Procedure: (§1) Off-target pharmacology was evaluated using the Eurofins SafetyScreen44 in vitro panel. […] Binding assays were performed using radioligand displacement, and enzyme or uptake assays measured inhibition of control activity using validated detection methods (scintillation counting, fluorimetry or photometry). Responses were expressed as percent inhibition of control binding or activity. Based on Eurofins interpretation guidelines, effects ≥50% were considered significant, effects between 25% and 50% weak to moderate, and effects <25% were not considered biologically relevant.

acetylcholinesterase (h) = biological target: T2, acetylcholinesterase (h) (Homo sapiens, UniProt P22303); assay: SafetyScreen44; assay type: biochemical; settings: enzymatic activity, 1.0E-05 M
T2 construct: purchased Eurofins (SafetyScreen44)
Procedure: as §1

PDE4D2 (h) = biological target: T3, PDE4D2 (h) (Homo sapiens, UniProt Q08499); assay: SafetyScreen44; assay type: biochemical; settings: enzymatic activity, 1.0E-05 M
T3 construct: purchased Eurofins (SafetyScreen44)
Procedure: as §1

Lck kinase (h) = biological target: T4, Lck kinase (h) (Homo sapiens, UniProt P06239); assay: SafetyScreen44; assay type: biochemical; settings: enzymatic activity, 1.0E-05 M
T4 construct: purchased Eurofins (SafetyScreen44)
Procedure: as §1

[1] = tested on: NorA overexpressing strain NCTC 13616; assay: Reserpine growth (efflux inhibition) assay; settings: for AUC of growth curve: biological replicates 1-3; for efflux liability in reserpine assay: 0.5x MIC with vs without reserpine
Procedure: Statistical analyses were performed with GraphPad Prism V9.5.0. […] Unpaired t tests were used when comparing two samples in the gyrase assays.

S. dysgalactiae = assay: MIC (microbroth dilution); assay type: cell-based; settings: for MIC: Streptococcus dysgalactiae
Method in brief: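 Microbroth dilution in tryptic soy broth; Streptococcus spp. in cation-adjusted Mueller Hinton broth with 2.5% lysed horse blood, inocula from overnight stationary-phase cultures. MIC is lowest concentration without visible growth, OD600 read. Parallel MICs run with 30 μg/mL polymyxin B nonapeptide (final) as outer-membrane permeabilizer.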

[2] = Kinetic aqueous solubility; assay type: physicochemical; settings: phosphate-buffered saline with 2% DMSO, pH 7.4, aqueous buffer, kinetic from dmso stock
Procedure: Kinetic aqueous solubility was determined using a standard LC-UV/MS-based assay. Test compounds were prepared from 10 mM DMSO stock solutions and diluted to a nominal concentration of 200 μM in phosphate-buffered saline (PBS, pH 7.4) containing 2% DMSO. Parallel dilutions in DMSO were used as reference standards. Samples were equilibrated at room temperature for 2 h with shaking, then filtered, and the filtrates were analyzed by LC-UV with mass spectrometric confirmation of the analyte peak. Solubility was determined by comparing the UV peak area of the PBS filtrate with those of the DMSO reference standards. The effective range of the assay was 10–200 μM.

CYP2C8 = CYP2C8 (Homo sapiens, UniProt P10632); assay: CYP inhibition; settings: HLM, amodiaquine substrate
Procedure: as §2

WT E. coli DNA gyrase = biological target: T5, WT E. coli DNA gyrase (Escherichia coli, UniProt P0AES4+P0AES6); assay: DNA gyrase inhibition assay; assay type: biochemical
T5 construct: purchased Inspiralis Ltd. (Norwich, UK)
Procedure: Gyrase inhibition was determined through biochemical assay kits from Inspiralis Ltd. (Norwich, UK), according to manufacturer’s instructions, and as described previously. Briefly, 1U of enzyme was incubated with 0.5 μg of relaxed […] DNA in the presence of compound in 1% DMSO for 30 min at 37 °C. A control reaction contained no compound but still contained 1% DMSO. The reactions were stopped through Stop Buffer addition and the DNA separated through addition of chloroform/iso-amyl alcohol (24;1). Samples were run on a 1% agarose gel at 75 V for 2 h, which was then stained with 1 μg/mL ethidium bromide and visualized using a NuGenius gel imager (Syngene). The intensity of the supercoiled DNA band was quantified using Syngene software, and the inhibition of the supercoiling of the DNA by the compounds was calculated.

[3] = probe midazolam, midazolam substrate
[4] = probe testosterone, testosterone substrate

CYP2B6, sequence (P20813 whole entry): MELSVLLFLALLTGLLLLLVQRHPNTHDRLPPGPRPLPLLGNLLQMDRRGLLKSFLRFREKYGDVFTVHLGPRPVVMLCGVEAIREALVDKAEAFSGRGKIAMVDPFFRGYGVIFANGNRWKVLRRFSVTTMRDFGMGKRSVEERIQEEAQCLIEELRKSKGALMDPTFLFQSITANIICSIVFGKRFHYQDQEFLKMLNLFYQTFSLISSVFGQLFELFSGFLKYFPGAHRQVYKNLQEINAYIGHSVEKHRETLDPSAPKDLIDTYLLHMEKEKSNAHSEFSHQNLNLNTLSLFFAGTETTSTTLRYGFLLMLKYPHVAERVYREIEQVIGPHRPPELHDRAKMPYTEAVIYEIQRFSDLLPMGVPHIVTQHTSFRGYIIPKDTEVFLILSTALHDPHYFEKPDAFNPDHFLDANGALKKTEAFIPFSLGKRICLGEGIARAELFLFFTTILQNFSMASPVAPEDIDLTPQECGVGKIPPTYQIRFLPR
T2 sequence (P22303 32-614): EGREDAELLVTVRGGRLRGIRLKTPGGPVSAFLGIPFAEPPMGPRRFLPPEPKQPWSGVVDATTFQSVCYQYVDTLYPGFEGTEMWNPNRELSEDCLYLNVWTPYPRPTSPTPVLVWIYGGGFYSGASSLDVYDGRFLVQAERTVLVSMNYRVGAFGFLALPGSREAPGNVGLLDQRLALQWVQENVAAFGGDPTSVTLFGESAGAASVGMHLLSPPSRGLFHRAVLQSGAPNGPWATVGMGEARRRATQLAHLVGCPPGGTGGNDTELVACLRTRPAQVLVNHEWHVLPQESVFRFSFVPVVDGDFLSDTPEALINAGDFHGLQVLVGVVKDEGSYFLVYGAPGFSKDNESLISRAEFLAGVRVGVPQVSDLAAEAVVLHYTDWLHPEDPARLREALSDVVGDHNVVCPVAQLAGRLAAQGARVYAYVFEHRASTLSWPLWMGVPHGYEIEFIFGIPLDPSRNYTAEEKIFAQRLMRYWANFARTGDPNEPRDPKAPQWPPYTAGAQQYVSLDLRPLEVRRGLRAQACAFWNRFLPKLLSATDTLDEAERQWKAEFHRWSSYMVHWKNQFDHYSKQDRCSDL
T1 sequence (P23219 24-599): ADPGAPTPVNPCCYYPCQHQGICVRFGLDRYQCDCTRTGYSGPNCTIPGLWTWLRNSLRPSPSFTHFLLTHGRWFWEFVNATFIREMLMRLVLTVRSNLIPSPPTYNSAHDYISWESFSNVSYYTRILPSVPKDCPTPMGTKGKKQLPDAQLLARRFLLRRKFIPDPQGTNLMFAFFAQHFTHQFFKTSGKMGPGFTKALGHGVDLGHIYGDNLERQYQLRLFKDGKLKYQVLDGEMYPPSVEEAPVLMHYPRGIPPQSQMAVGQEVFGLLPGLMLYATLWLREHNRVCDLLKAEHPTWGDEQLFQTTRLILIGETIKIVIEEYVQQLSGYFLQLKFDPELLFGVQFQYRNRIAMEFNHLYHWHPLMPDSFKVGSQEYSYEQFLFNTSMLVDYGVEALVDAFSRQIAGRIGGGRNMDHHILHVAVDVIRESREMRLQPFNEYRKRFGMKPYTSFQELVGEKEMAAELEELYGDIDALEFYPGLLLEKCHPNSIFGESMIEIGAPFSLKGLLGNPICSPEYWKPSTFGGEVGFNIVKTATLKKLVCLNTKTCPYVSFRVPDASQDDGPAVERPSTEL
T3 sequence (Q08499 303-809): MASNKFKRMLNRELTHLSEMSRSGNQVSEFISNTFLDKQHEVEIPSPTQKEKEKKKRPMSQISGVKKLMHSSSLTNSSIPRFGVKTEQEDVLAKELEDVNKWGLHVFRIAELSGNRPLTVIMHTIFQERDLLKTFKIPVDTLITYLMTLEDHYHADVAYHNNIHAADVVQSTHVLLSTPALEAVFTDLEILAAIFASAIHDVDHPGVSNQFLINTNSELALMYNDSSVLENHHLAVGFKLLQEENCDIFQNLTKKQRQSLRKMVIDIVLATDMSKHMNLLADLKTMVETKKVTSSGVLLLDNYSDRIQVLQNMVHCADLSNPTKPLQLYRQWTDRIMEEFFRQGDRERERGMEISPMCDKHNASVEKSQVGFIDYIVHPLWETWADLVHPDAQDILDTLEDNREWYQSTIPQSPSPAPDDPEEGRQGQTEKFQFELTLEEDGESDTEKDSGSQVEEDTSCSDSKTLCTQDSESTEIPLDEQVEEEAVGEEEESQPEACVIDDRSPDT
T4 sequence (P06239 whole entry): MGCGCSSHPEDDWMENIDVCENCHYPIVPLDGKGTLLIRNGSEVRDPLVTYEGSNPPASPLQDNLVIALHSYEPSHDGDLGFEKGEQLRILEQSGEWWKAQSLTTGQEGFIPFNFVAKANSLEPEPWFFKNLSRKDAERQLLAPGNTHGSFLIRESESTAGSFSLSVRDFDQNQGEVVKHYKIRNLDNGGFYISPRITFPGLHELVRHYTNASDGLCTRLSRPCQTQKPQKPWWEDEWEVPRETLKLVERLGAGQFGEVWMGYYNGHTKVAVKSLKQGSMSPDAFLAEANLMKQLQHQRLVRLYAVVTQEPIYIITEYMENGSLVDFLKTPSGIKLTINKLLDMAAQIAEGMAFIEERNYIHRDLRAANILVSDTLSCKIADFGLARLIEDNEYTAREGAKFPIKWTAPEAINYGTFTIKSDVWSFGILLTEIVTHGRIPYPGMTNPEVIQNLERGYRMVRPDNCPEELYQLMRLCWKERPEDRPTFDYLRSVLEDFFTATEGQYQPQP
CYP2C8, sequence (P10632 whole entry): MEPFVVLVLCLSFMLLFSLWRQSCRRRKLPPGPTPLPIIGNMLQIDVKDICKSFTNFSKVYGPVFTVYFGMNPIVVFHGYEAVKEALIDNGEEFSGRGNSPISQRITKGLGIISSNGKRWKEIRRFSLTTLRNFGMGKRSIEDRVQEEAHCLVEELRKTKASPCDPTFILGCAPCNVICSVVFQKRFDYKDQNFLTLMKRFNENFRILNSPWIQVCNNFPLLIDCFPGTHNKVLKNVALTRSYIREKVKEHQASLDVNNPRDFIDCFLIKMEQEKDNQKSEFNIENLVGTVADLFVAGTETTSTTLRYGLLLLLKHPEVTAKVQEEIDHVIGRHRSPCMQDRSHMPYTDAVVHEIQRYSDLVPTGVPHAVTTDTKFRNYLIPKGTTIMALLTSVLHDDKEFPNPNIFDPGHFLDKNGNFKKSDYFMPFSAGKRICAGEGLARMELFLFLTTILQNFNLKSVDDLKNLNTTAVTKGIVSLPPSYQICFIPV
T5 sequence (P0AES4 whole entry, one chain of several): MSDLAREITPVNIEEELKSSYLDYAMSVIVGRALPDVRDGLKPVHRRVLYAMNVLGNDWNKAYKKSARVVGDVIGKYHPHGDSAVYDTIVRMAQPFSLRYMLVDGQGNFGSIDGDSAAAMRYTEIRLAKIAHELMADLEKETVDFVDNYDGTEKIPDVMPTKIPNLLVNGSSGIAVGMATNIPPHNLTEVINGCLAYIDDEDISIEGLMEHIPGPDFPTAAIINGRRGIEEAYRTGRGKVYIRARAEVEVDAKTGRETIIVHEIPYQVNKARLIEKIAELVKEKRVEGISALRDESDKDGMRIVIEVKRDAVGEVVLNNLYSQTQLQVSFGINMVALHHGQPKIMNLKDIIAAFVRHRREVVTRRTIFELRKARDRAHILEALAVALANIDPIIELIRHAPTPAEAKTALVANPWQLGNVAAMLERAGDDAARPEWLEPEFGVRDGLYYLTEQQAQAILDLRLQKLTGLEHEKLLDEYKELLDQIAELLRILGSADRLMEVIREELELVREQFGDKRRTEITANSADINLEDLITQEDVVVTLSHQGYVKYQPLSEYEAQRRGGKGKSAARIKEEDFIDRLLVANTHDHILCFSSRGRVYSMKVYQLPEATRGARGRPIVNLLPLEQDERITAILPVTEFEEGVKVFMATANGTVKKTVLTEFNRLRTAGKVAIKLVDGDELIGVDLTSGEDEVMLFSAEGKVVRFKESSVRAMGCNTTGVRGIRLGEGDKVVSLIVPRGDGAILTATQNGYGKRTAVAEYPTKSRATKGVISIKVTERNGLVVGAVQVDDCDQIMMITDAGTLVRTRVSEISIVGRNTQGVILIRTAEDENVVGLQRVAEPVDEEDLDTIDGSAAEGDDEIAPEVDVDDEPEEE

Cc1cc(C)nc(N[C@@H]2CCN(c3c(F)cc4c(=O)c(C(=O)O)cn5c4c3OC[C@@H]5C)C2)n1 [Compound 50, (S)-10-((R)-3-((4,6-Dimethylpyrimidin-2-yl)amino)pyrrolidin-1-yl)-9-fluoro-3-methyl-7-oxo-2,3-dihydro-7H-[1,4]oxazino[2,3,4-ij]quinoline-6-carboxylic acid]
MIC (S. pyogenes; 8198, read-out: MIC): ≤ 0.03 µg/mL | MIC (S. pyogenes; 12048, read-out: MIC): ≤ 0.03 µg/mL | MIC (S. pyogenes; 13736, read-out: MIC): ≤ 0.03 µg/mL | MIC (S. pyogenes; 13737): 0.125 µg/mL (≈ 0.276 µM) | MIC (S. pyogenes; 13738): 0.125 µg/mL (≈ 0.276 µM) | MIC (S. pyogenes; 80661, read-out: MIC): ≤ 0.03 µg/mL | MIC (S. pyogenes; 81017, read-out: MIC): 0.06 µg/mL (≈ 0.132 µM) | MIC (S. pyogenes; 82434, read-out: MIC): ≤ 0.03 µg/mL | MIC (S. pyogenes; 82896, read-out: MIC): ≤ 0.03 µg/mL | MIC (S. pyogenes; 83581, read-out: MIC): ≤ 0.03 µg/mL | MIC (S. pyogenes; 84285, read-out: MIC): ≤ 0.03 µg/mL | MIC (S. pyogenes; 86519, read-out: MIC): 0.06 µg/mL (≈ 0.132 µM) | MIC (S. pyogenes; ATCC14289, ATCC 14289): 0.125 µg/mL (≈ 0.276 µM) | MIC (S. pyogenes; ATCC19615, ATCC 19615): 0.125 µg/mL (≈ 0.276 µM) | MIC (S. pyogenes; n = 12 isolates, read-out: modal MIC): ≤ 0.03 µg/mL | MIC range (S. pyogenes; n = 12 isolates): ≤ 0.03 to 0.125 µg/mL | CYP3A inhibition (CYP3A; midazolam substrate, 10 μM): 10.5% | inhibition at 10 µM (CYP3A; [3]): 10.5% | inhibition at 10 µM (CYP3A; [4]): 6.32% | CYP2B6 inhibition (CYP2B6; 10 μM): 4.821% and < 10% | inhibition at 10 µM (COX1(h)): 15% | inhibition at 10 µM (acetylcholinesterase (h)): 34.2% | inhibition at 10 µM (PDE4D2 (h)): 31.8% | inhibition at 10 µM (Lck kinase (h)): 2.87% | AUC of growth curve ([1]; 0.25 MIC + R (reserpine)): 2.985 and 3.342 and 3.404 | AUC of growth curve ([1]; 0.25 MIC): 3.519 and 4.693 and 4.851 | AUC of growth curve ([1]; 0.5 MIC + R (reserpine)): 1.548 and 1.586 and 2.254 | AUC of growth curve ([1]; 0.5 MIC): 2.203 and 2.425 and 1.859 | efflux liability in reserpine assay [1]: minimal shift | MIC (S. dysgalactiae; 10238, read-out: MIC): ≤ 0.03 µg/mL | MIC (S. dysgalactiae; 13759, read-out: MIC): ≤ 0.03 µg/mL | MIC (S. dysgalactiae; 13762, read-out: MIC): ≤ 0.03 µg/mL | MIC (S. dysgalactiae; 81251, read-out: MIC): ≤ 0.03 µg/mL | MIC (S. dysgalactiae; 81553): 0.125 µg/mL (≈ 0.276 µM) | MIC (S. dysgalactiae; 84143, read-out: MIC): 0.06 µg/mL (≈ 0.132 µM) | MIC (S. dysgalactiae; 84557, read-out: MIC): ≤ 0.03 µg/mL | MIC (S. dysgalactiae; 84574, read-out: MIC): 0.06 µg/mL (≈ 0.132 µM) | MIC (S. dysgalactiae; n = 8, read-out: modal MIC): ≤ 0.03 µg/mL | MIC range (S. dysgalactiae; n = 8): ≤ 0.03 to 0.125 µg/mL | solubility at 2 h [2]: 156 µM (≈ 70.6 µg/mL) | inhibition at 10 µM (CYP2C8; human, human liver microsomes, probe amodiaquine, CYP2C8 inhibition): 13.4%

C[C@H]1COc2c(N3CCN(C)CC3)c(F)cc3c(=O)c(C(=O)O)cn1c23 [Levofloxacin, (S)-9-Fluoro-3-methyl-10-(4-methylpiperazin-1-yl)-7-oxo-2,3-dihydro-7H-[1,4]oxazino[2,3,4-ij]quinoline-6-carboxylic acid, reference compound]
IC50 (WT E. coli DNA gyrase; wild-type E. coli DNA gyrase, read-out: IC50 (converted)): 0.526 µM

C[C@H]1COc2c(N3CC[C@@H](Nc4ncccn4)C3)c(F)cc3c(=O)c(C(=O)O)cn1c23 [Compound 46, (S)-9-Fluoro-3-methyl-7-oxo-10-((R)-3-(pyrimidin-2-ylamino)pyrrolidin-1-yl)-2,3-dihydro-7H-[1,4]oxazino[2,3,4-ij]quinoline-6-carboxylic acid]
MIC (S. pyogenes; 8198, read-out: MIC): ≤ 0.03 µg/mL | MIC (S. pyogenes; 12048): 0.03 to 0.125 µg/mL (≈ 0.0705 to 0.294 µM) | MIC (S. pyogenes; 13736, read-out: MIC): 0.06 µg/mL (≈ 0.141 µM) | MIC (S. pyogenes; 13737): 0.125 µg/mL (≈ 0.294 µM) | MIC (S. pyogenes; 13738): 0.125 µg/mL (≈ 0.294 µM) | MIC (S. pyogenes; 80661): 0.06 to 0.125 µg/mL (≈ 0.141 to 0.294 µM) | MIC (S. pyogenes; 81017): 0.125 µg/mL (≈ 0.294 µM) | MIC (S. pyogenes; 82434, read-out: MIC): 0.06 µg/mL (≈ 0.141 µM) | MIC (S. pyogenes; 82896, read-out: MIC): 0.06 µg/mL (≈ 0.141 µM) | MIC (S. pyogenes; 83581): 0.06 to 0.125 µg/mL (≈ 0.141 to 0.294 µM) | MIC (S. pyogenes; 84285, read-out: MIC): 0.06 µg/mL (≈ 0.141 µM) | MIC (S. pyogenes; 86519): 0.125 µg/mL (≈ 0.294 µM) | MIC range (S. pyogenes; n = 12 isolates): 0.06 to 0.125 µg/mL | IC50 (WT E. coli DNA gyrase): 0.682 µM | inhibition at 10 µM (CYP3A; [3]): 25.2% | inhibition at 10 µM (CYP3A; [4]): 6.5% | inhibition at 10 µM (CYP2B6; human, human liver microsomes, probe bupropion, CYP2B6 inhibition): -1.3% | % Inhibition (COX1(h)): 30.3185% and 30.3% | % Inhibition (acetylcholinesterase (h)): 32.9861% and 33.0% | inhibition at 10 µM (PDE4D2 (h)): 14.8% | % Inhibition (Lck kinase (h)): -2.891% | AUC of growth curve ([1]; 0.25 MIC + R (reserpine)): 3.991 and 3.857 and 2.348 | AUC of growth curve ([1]; 0.25 MIC): 5.243 and 5.279 and 3.696 | AUC of growth curve ([1]; 0.5 MIC + R (reserpine)): 3.930 and 3.864 and 2.013 | AUC of growth curve ([1]; 0.5 MIC): 4.798 and 3.349 and 3.713 | efflux liability in reserpine assay [1]: minimal shift | MIC (S. dysgalactiae; 10238, read-out: MIC): 0.06 to 0.25 µg/mL (≈ 0.141 to 0.588 µM) | MIC (S. dysgalactiae; 13759, read-out: MIC): 0.06 µg/mL (≈ 0.141 µM) | MIC (S. dysgalactiae; 13762, read-out: MIC): 0.06 µg/mL (≈ 0.141 µM) | MIC (S. dysgalactiae; 81251): 0.125 µg/mL (≈ 0.294 µM) | MIC (S. dysgalactiae; 81553): 0.125 µg/mL (≈ 0.294 µM) | MIC (S. dysgalactiae; 84143): 0.06 to 0.125 µg/mL (≈ 0.141 to 0.294 µM) | MIC (S. dysgalactiae; 84557): 0.03 to 0.125 µg/mL (≈ 0.0705 to 0.294 µM) | MIC (S. dysgalactiae; 84574): 0.06 to 0.125 µg/mL (≈ 0.141 to 0.294 µM) | MIC range (S. dysgalactiae; n = 8): 0.0625 to 0.125 µg/mL | solubility at 2 h [2]: 183 µM (≈ 77.9 µg/mL) | CYP2C8 inhibition (CYP2C8; 10 μM): 3.1%
